# From patent US6120997A, “Nucleic acid binders having an hydroxyamine motif” (The Scripps Research Institute, priority 1998, dated 2000)
# Assays:
# [1] = NMR dilution experiments of 1:1 salt complexes in DMSO-d6 (phosphodiester recognition); type: binding
# Description: (§1) [a] NMR dilution experiments with the preformed 1:1 salt complexes were performed in DMSO-d6 at […]; [b] calculated maximum shift at full complexation in ppm.
# (§2) In order to determine binding constants we prepared defined 1:1 salt complexes and measured their dissociation upon stepwise dilution in [D6 ]DMSO by following the shifts of NH and OH resonances. The chemical shift values of the totally uncomplexed state (o) and the fully complexed state (n) and the stability constant Ka were subsequently determined by curve fitting. […] In all cases, data could be fitted to a 1:1 binding isotherm. […] This order mirrors the order of binding affinities and is consistent with the interpretation that differential involvement of the hydroxyl group in hydrogen bonding provides for the energetic differences in complexation.
# [2] = NMR dilution experiments with chloride counterion in DMSO-d6; type: binding
# Description: as §1, §2
# [3] = target: Rev27 (synthetic Rev34-50 RNA-binding peptide with flanking Ala and N-terminal Cys) (Human immunodeficiency virus 1) (UniProt P04618); experiment: SPR; conditions: pH 7.4, 10 mM HEPES, 150 mM NaCl, 150 mM Na2SO4, 3.4 mM EDTA, 5 mM DTT, 10 C; 1:1; FIG. 7 legend gives 200 nM; Kd <10 nM at 5 C in 300 mM NaCl without sulfate
# [4] = NMR binding study with dimethylphosphate in water; conditions: concentration ranges accessible by NMR
# Excerpt: (§3) To investigate whether 1,3-hydroxyamine substructures may be involved in binding in aqueous solution, we turned our attention to neamine (12; FIG. 4), a pseudodisaccharide substructure commonly found in a wide range of aminoglycoside antibiotics. […] These weak forces may, however, be enhanced by increasing the charge of the interacting species. In fact, many recognition events involving nucleic acids--including those by aminoglycosides--are likely to have a strong contribution from their polyionic character. We therefore turned our attention to sulfate, as it is a tetrahedral oxyanion similar to phosphate and its double negative charge mimics the effect of a polyanion. Furthermore, it has a defined ionization state. Since the spectra of aminoglycosides are highly dependent on pH, and even minor pH changes can outweigh any small complexation induced shifts, we performed binding studies at low pH, where neamine is fully protonated. […] Analysis of ^13 C-NMR spectra provided a clearer picture (FIG. 4). […] Thus, the selectivity found in aqueous solution is in full agreement with the order of binding affinities determined in the model compounds.
# [5] = test system: Escherichia coli (ATCC 25922); experiment: minimum inhibitory concentration, broth dilution technique; type: cell-based; conditions: E. coli, liquid culture
# Excerpt: We reasoned that this modification would provide the cleanest test for probing the ionic contribution, since hydrogen bond donor abilities, electronegativity and steric demand are similar for both functional groups. In order to learn how well the model system correlates with in vivo activity, we checked the new compounds for antibacterial activity against three bacterial strains using the disc method (Kirby-Bauer technique). The minimum inhibitory concentrations (MICs) of the compounds were then determined using the broth dilution technique. For antibiotic testing protocols, see: (a) Disk testing protocols: Phillips, I.; Williams, D., in Laboratory Methods in Antimicrobial Chemotherapy, Garrod, L. (ed.) Churchill Livingstone Press: Edinburgh, 1978, pp. 3-30. (b) MIC determination: Waterworth, P. M., in Laboratory Methods in Antimicrobial Chemotherapy, Garrod, L. (ed.) Churchill Livingstone Press: Edinburgh, 1978, pp. 31-40; Barry, A. L. The Antimicrobic Susceptibility Test: Principles and Practice, Lea and Febiger: Philadelphia (1976). (c) Standards: Lorian, V., Antibiotics in Laboratory Medicine (2nd. ed.), Williams and Wilkins: Baltimore, 1986.
# FIG. 39A gives the zone diameters measured for the three bacterial strains. The zone diameters measured for the strains with known antibiotics are well within the accepted limits. […] It is worth noting that some testing protocols recommend overnight growth of the cultures, rather than the minimum time required to obtain good growth of the control. MIC values were tested for several of the control antibiotics using overnight growth, and the MIC values observed were 2-4× greater than those observed for 4-6 hour growth.
# Minimal Inhibitory Concentration (MIC) testing. E. coli ATCC 25922 was grown in Mueller-Hinton broth (cation-adjusted, BBL Microbiology Systems) to an optical density of approx. 0.5 (absorbance read at 600 nm), then diluted to an OD600 of 0.1. Samples of antibiotic were prepared in Mueller-Hinton broth, typically a series of 2-fold dilutions from […]. […] The absorbance of each sample was read (1=600 nm), and MIC was considered to be the lowest antibiotic concentration at which the absorbance was less than 1% of the no-antibiotic control.
# [6] = 13C-NMR titration of neamine with sodium sulfate in water; type: binding; conditions: pH 3.5
# Excerpt: FIGS. 4A-4D illustrate the titration of neamine (12) with sodium sulfate at pH 3.5: (A) Titration curve for C1'. (B) Job plot; x=% complex formation. (C) Structure of neamine indicating the sites of maximum observed shift. (D) Maximum observed shift.
# as §3
# AS-wt = experiment: SPR binding of aminoglycosides to decoding region A-site model AS-wt; set-up: species or system E. coli
# Description: The RNA binding properties of 100-800 were analyzed using a surface plasmon resonance based assay that was recently developed in these laboratories. This assay allows the determination of both affinity and specificity of small molecule-RNA interactions. For the analysis, the compounds were injected over a matrix containing RNA that was immobilized through a biotin tag and the equilibrium binding values were recorded at various concentrations.
# Non-linear curve fitting was then used to determine the values of the dissociation constants (KD). The specificity of binding, i.e. the ability to discriminate between different RNA sequences was evaluated by comparing the binding to the target sequence (AS-wt) and the negative control (AS-U1495A). The ratio of KD(AS-U1495A) to KD(AS-wt) was taken to be a representation of the specificity of the binding event.
# For the quantitative measurement of aminoglycoside binding to these sequences, we utilized our recently developed SPR-based assay. Biotinylated derivatives of all sequences were prepared by in vitro transcription in the presence of guanosine 5'-monophosphorothioate followed by alkylation with a biotin iodoacetamide derivative. The RNA conjugates were then immobilized onto streptavidin coated SPR-sensorchips for analysis.
# In the same manner as illustrated for paromomycin, a panel of aminoglycosides was screened and the results are compiled in the table of FIGS. 46 and 47. In addition to the naturally occuring aminoglycoside antibiotics, some of the compounds in FIG. 46 are synthetically derived, unnatural aminoglycosides. The number of independent determinations for each dissociation constant ranged from 1-3. […] All data were recorded under near physiological salt conditions (HBS-buffer: 150 mM NaCl, 10 mM HEPES, pH7.4, 3.4 mM EDTA) unless noted otherwise. Data points were taken at concentrations ranging from […]. Below this concentration range, surface transport limitations prevent the attainment of equilibrium.
# Plasmon resonance and antimicrobial testing for Example 4. Synthesis of the biotinylated RNA and surface plasmon resonance detected binding experiments were performed as described vida supra. Solution conditions: 150 mM NaCl, 10 mM HEPES (pH 7.4), 3.4 mM EDTA. KD determination from the binding curves.
# The fitting routine of the program kaleidagraph was used for all calculations. The starting values for a and b were set to 1 and 0 respectively. The number of KD values used in the fitting was adjusted depending on the observed range of equivalents bound but generally varied from 3 to 4.
# General Procedures for SPR Binding Studies done in Example 5. Samples were prepared by serial dilutions from stock solutions in RNase free microfuge tubes (Ambion) and were centrifuged at 14000 rpm for degassing. Unless otherwise noted, all binding studies were carried out using HBS buffer (Pharmacia Biosensor AB) which was used as obtained. All procedures for binding studies were automated as methods using repetitive cycles of sample injection and regeneration. Typically, buffer was injected in the first two cycles to establish a stable baseline value. Samples were injected at a flowrate of […] using either the KINJECT command. All aminoglycoside samples were injected from autoclaved 7 mm plastic vials that were capped with pierceable plastic crimp caps. To minimize carry over, samples were injected in order of increasing concentration. The running buffer was identical to the injection buffer. Expected values for the equilibrium response of one equivalent of analyte were calculated from the relative molecular weight of the analyte and the immobilized RNA ligand in each flowcells and adjusted with a correction factor of 0.76 which arises from the different molar refractive indices of RNA and the analyte. […]
# [7] = test system: bacterial protein synthesis; conditions: cited from earlier work
# Chain of UniProt P04618 (P04618 whole entry): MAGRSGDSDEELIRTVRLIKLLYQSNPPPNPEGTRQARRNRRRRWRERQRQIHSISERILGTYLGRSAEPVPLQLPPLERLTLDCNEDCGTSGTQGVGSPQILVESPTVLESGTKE
compound,measurement,setting,value
CO[C@H]1O[C@H](CNCc2ccccc2)[C@@H](O)[C@H](OCc2ccccc2)[C@H]1OCc1ccccc1 [Compound 3],selectivity for dimethylphosphate over chloride,[1],7 fold
same,chloride binding (in words),[2],"lower chloride binding compared to 2, 4 and 5"
wt-RRE-II,Kd,[3],0.215 µM
NC[C@H]1O[C@H](O[C@H]2[C@H](O)[C@@H](O)[C@H](N)C[C@@H]2N)[C@H](N)[C@@H](O)[C@@H]1O [Neamine],binding to dimethylphosphate in water (in words),[4],no detectable binding
same,antibacterial activity / MIC compared with neomycin B (in words),[5],inferior anti microbial activity
same,binding stoichiometry with sulfate (method of Job),[6],1:1 complex
same,Kd,"AS-wt; 150 mM NaCl, 10 mM HEPES (pH 7.4), 3.4 mM EDTA, read-out: dissociation constant, AS-wt",7.8 µM
same,specificity for AS-wt over negative controls (in words),"AS-wt; Example 5, HBS-buffer",moderate specificity for AS-wt over AS-U1495A
same,specificity for AS-wt relative to AS-U1495A,AS-wt; KD(AS-U1495A)/KD(AS-wt),approximately 4 fold
same,effect on bacterial protein synthesis (in words),[7],induces miscoding during translation
